# Assay results reported in PMC8119466, “A screen of FDA-approved drugs identifies inhibitors of protein tyrosine phosphatase 4A3 (PTP4A3 or PRL-3)” (Scientific Reports, 2021).
# Read-outs that look alike come from different tables or passages of the source.
# Key:
# recombinant PRL-1 = target: T1, recombinant PRL-1 (Homo sapiens, UniProt Q93096); assay: In vitro phosphatase assay (DiFMUP hydrolysis), PRL-1; format: biochemical; details: for % Phosphatase Activity (compared to DMSO) PRL-1: FDA-approved drug screen; for IC50: DiFMUP at KM, read-out: Calculated IC50, PRL-1 phosphatase activity
# T1 construct: 6xHis (N, cleaved yes); made in house; host or cells: E. coli One Shot BL21 Star
# T1 sequence (Q93096 1-173): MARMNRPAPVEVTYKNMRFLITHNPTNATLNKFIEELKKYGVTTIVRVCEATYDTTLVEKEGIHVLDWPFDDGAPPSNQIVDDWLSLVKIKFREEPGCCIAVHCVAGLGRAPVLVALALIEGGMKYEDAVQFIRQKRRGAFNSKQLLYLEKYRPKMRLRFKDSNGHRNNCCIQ
# recombinant PRL-3 = target: T2, recombinant PRL-3 (Homo sapiens, UniProt O75365); assay: In vitro phosphatase assay (DiFMUP hydrolysis), PRL-3; format: biochemical; details: for % Phosphatase Activity (compared to DMSO) PRL-3: FDA-approved drug screen; for IC50: DiFMUP at KM, read-out: Calculated IC50, PRL-3 phosphatase activity; for mode of inhibition (Lineweaver-Burke analysis): versus DiFMUP substrate, reduce apparent Vmax, do not affect KM
# T2 construct: 6xHis (N, cleaved yes); made in house; host or cells: E. coli One Shot BL21 Star
# T2 sequence (O75365 whole entry): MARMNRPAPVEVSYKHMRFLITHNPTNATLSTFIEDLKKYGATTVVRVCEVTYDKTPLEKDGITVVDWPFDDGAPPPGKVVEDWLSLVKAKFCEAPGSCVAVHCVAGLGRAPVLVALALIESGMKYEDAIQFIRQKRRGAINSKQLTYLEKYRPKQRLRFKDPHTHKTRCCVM
# HEK293T cells = assay: Scratch (migration) assay, HEK293T transfected with PRL-3 or empty vector; format: cell-based, human; details: compared to DMSO; for cellular migration in control cells: HEK293T empty vector, 24 h; for cellular migration in PRL-3 overexpressing cells: HEK293T transfected with PRL-3, 24 h
# Method: (§1) pENTR-PRL-3 (previously described[51]) was cloned into pLKO-CMV-puro using LR clonase (Thermofisher, 11,791,019) according to manufacturer’s directions. pLKO-CMV empty vector (EV) and pLKO-CMV:PRL-3 were transfected into HEK293T using Lipofectamine 3000 (ThermoFisher, L3000015) according to manufacturer’s protocol. Transfected cells were selected with 1 µg/mL puromycin in complete media to establish the cell line, then were maintained under 0.5 µg/mL puromycin in complete media. For PRL-3 knockdown, pLKO.1-scrambled shRNA and pLKO.1-PRL-3 shRNA[51] plasmids were transfected into HCT116 cells using Lipofectamine 3000 (Thermo Fisher, Cat # L3000015) according to the manufacturer’s directions. Cells were selected for 48 h in 1 µg/mL puromycin before use in assays.
# (§2) Cells were seeded into duplicate wells of a 48 well plates at a density of 2 × 10^5 cells per well for HEK293T or 4 × 10^5 for HCT116 and SW480. Cells were recovered overnight and were scratched using a p20 pipette tip the following day. Compounds were added at the concentrations indicated. Images were obtained immediately after the scratch and after a 24 h incubation with the drug on an Evos FL inverted microscope (ThermoFisher). The area within the scratch was calculated using ImageJ. The area migrated was measured as the difference in wound area at 0 h and 24 h and the percent change in migration was calculated by dividing the difference in wound area of treatment by the difference in wound area of the control.
# HCT116 cells [1] = assay: Scratch (migration) assay, HCT116; format: cell-based, human; details: 24 h, 100 µM Salirasib or 25 µM Candesartan
# Method: as §1, §2
# SW480 cells = assay: Scratch (migration) assay, SW480; format: cell-based, human; details: 24 h, 100 µM Salirasib or 25 µM Candesartan, vs DMSO
# Method: as §2
# HCT116 cells [2] = assay: Click-IT Edu cell proliferation assay, HCT116; format: cell-based, human; details: HCT-116; 100 µM Salirasib or 25 µM Candesartan; 24 and 48 hr
# Method: The cell proliferation assay was performed using the Click-IT Edu cell proliferation kit from (Thermo Fisher, Cat # C10419) according to the manufacturer’s protocol. Briefly, HEK293T, HCT116 and SW480 cells were plated in 6 well dishes at 4 × 10^5 cell seeding density and treated with DMSO, Candesartan and Salirasib at the indicated concentrations. Edu was added 2 h prior to collecting the cells at 24 h and 48 h time points and the assay was performed according to the instructions from the manual. Flow cytometry with AlexaFluor647 conjugated azide dye was used to determine the cellular proliferation and DAPI was used for the DNA content.
# ACP1 (LMPTP-A) = target: T3, ACP1 (LMPTP-A) (Homo sapiens, UniProt P24666); assay: PhosphataseProfiler (Eurofins) selectivity panel; format: biochemical; details: 25µM
# T3 construct: purchased Eurofins PP260
# T3 sequence (P24666 whole entry): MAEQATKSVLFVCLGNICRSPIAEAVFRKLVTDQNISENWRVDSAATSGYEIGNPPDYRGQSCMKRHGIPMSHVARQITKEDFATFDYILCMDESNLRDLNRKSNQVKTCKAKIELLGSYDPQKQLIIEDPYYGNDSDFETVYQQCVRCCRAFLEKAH
# Method: (§4) Briefly, protein was diluted in reaction buffer and allowed to incubate at 4 °C for 20 min to allow for full reduction of the active site. DiFMUP, drug, and protein were added, and plates were incubated for 20 min at room temperature. Fluorescence intensities were measured on a Cytation 5 plate reader (Biotek) at an EX:360 nm and EM:460 nm. […] Inhibition selectivity for PRLs over a panel of other phosphatases was determined using PhosphataseProfiler (Eurofins, Cat # PP260).
# ACP1 (LMPTP-B) = target: T4, ACP1 (LMPTP-B) (Homo sapiens, UniProt P24666); assay: PhosphataseProfiler (Eurofins) selectivity panel; format: biochemical; details: 25µM
# T4 construct: purchased Eurofins PP260
# T4 sequence (P24666 1-158 isoform P24666-2): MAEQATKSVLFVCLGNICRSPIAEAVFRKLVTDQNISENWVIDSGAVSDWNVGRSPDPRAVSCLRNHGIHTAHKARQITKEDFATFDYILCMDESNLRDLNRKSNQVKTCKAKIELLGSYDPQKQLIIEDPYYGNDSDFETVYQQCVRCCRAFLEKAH
# Method: as §4
# MKP5 = target: T5, MKP5 (Homo sapiens, UniProt Q9Y6W6); assay: PhosphataseProfiler (Eurofins) selectivity panel; format: biochemical; details: MKP5, 25µM
# T5 construct: purchased Eurofins PP260
# T5 sequence (Q9Y6W6 whole entry): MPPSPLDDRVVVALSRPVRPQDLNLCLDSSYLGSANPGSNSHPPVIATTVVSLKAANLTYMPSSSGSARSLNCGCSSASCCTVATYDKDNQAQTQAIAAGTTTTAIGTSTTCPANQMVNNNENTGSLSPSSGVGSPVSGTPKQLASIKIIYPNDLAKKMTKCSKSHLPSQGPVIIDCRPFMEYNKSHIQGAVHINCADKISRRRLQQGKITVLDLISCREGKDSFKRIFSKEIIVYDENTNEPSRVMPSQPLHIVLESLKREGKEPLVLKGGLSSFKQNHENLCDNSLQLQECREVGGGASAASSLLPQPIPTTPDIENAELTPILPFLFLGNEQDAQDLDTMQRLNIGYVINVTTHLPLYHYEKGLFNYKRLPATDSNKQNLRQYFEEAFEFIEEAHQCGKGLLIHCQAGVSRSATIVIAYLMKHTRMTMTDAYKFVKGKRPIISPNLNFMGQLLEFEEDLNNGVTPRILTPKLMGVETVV
# PP1alpha = target: T6, PP1alpha (Homo sapiens, UniProt P62136); assay: PhosphataseProfiler (Eurofins) selectivity panel; format: biochemical; details: 25µM
# T6 construct: purchased Eurofins PP260
# T6 sequence (P62136 whole entry): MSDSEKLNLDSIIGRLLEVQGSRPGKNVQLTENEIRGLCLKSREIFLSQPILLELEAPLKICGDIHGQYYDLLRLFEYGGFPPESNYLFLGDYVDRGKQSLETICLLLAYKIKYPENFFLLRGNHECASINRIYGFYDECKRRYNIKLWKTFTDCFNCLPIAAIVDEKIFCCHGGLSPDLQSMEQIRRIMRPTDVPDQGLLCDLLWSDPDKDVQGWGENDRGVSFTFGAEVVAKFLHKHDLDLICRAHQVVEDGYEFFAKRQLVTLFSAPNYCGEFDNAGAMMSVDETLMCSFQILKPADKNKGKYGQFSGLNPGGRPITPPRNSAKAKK
# PTPbeta = target: T7, PTPbeta (Homo sapiens, UniProt P23467); assay: PhosphataseProfiler (Eurofins) selectivity panel; format: biochemical; details: 25µM
# T7 construct: purchased Eurofins PP260
# CD45 = target: T8, CD45 (Homo sapiens, UniProt P08575); assay: PhosphataseProfiler (Eurofins) selectivity panel; format: biochemical; details: CD45, 25µM
# T8 construct: purchased Eurofins PP260
# T8 sequence (P08575 26-1306): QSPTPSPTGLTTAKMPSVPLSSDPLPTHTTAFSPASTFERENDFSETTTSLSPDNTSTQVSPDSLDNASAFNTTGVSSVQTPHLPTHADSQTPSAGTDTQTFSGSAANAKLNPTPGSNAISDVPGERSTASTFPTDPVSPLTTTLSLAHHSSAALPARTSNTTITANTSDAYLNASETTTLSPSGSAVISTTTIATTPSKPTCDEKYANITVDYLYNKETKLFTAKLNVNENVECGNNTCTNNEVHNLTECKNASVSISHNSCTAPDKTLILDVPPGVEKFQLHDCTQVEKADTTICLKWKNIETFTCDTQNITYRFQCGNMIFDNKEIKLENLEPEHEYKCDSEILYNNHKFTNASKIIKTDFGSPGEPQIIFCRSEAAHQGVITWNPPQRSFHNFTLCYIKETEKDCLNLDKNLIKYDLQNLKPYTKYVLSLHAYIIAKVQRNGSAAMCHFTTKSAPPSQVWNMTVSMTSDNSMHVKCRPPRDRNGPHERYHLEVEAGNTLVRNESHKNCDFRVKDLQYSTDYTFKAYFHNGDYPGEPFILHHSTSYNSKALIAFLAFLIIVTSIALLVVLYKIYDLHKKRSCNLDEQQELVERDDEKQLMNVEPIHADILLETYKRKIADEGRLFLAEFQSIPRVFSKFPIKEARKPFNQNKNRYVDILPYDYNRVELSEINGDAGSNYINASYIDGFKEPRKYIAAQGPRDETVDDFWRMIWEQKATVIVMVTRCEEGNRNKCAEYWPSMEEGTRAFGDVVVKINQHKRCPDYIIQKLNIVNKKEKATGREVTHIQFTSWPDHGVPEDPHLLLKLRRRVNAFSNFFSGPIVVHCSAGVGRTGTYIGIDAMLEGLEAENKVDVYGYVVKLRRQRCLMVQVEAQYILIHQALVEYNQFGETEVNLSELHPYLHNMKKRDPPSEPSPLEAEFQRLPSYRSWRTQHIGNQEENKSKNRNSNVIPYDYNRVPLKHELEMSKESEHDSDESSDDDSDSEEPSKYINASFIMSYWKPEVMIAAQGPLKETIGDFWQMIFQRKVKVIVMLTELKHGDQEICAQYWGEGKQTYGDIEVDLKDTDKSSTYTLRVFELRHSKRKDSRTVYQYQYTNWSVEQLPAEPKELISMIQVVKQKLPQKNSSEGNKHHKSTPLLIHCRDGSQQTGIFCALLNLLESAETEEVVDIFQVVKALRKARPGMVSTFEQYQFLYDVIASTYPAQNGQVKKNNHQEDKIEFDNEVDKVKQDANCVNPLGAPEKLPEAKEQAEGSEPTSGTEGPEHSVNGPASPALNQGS
# Method: (§3) In 384 well plates, 2.5 μM recombinant PRL-1, PRL-2, or PRL-3 was combined with DiFUMP (Life Technologies, Cat # E12020) at the KM of each protein in reaction buffer (20 mM Tris–Cl, pH 7.5, 150 mM NaCl, 10 mM DTT) as previously reported. Briefly, protein was diluted in reaction buffer and allowed to incubate at 4 °C for 20 min to allow for full reduction of the active site. DiFMUP, drug, and protein were added, and plates were incubated for 20 min at room temperature. Fluorescence intensities were measured on a Cytation 5 plate reader (Biotek) at an EX:360 nm and EM:460 nm. Data were normalized to vehicle control and IC50 values were calculated on GraphPad Prism version 8. Inhibition selectivity for PRLs over a panel of other phosphatases was determined using PhosphataseProfiler (Eurofins, Cat # PP260).
# Lambda PP = target: T9, Lambda PP (Escherichia phage lambda, UniProt P03772); assay: PhosphataseProfiler (Eurofins) selectivity panel; format: biochemical; details: 25µM
# T9 construct: purchased Eurofins PP260
# T9 sequence (P03772 whole entry): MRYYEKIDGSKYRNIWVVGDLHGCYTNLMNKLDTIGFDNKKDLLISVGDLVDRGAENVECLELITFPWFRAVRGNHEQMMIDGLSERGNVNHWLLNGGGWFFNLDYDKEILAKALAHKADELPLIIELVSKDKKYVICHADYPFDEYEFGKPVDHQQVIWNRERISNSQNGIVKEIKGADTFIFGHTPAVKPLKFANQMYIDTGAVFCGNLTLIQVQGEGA
# Method: as §3
# PP2A = assay: PhosphataseProfiler (Eurofins) selectivity panel; format: biochemical; details: 25µM
# Method: as §3
# PTPMEG = target: T10, PTPMEG (Homo sapiens, UniProt P29074); assay: PhosphataseProfiler (Eurofins) selectivity panel; format: biochemical; details: 25µM
# T10 construct: purchased Eurofins PP260
# Method: as §3
# PTPMEG2 = target: T11, PTPMEG2 (Homo sapiens, UniProt P43378); assay: PhosphataseProfiler (Eurofins) selectivity panel; format: biochemical; details: PTPMEG2, 25µM
# T11 construct: purchased Eurofins PP260
# T11 sequence (P43378 whole entry): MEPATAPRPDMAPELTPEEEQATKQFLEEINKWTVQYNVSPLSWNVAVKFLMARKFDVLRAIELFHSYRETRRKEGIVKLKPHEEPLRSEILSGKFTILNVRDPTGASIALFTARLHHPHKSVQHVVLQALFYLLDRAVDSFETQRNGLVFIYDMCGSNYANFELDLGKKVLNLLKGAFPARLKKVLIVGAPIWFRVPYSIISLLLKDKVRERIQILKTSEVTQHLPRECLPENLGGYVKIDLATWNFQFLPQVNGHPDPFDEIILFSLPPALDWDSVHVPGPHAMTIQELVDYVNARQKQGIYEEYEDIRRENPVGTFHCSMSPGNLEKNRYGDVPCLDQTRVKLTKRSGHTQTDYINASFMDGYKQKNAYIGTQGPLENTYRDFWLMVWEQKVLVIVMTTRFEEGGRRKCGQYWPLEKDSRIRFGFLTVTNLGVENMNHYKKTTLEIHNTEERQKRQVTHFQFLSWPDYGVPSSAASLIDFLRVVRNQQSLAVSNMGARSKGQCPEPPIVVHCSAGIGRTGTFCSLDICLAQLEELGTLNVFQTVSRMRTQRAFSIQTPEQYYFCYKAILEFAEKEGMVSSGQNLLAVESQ
# Method: as §3
# PTPRM = target: T12, PTPRM (Homo sapiens, UniProt P28827); assay: PhosphataseProfiler (Eurofins) selectivity panel; format: biochemical; details: 25µM
# T12 construct: purchased Eurofins PP260
# T12 sequence (P28827 21-1452): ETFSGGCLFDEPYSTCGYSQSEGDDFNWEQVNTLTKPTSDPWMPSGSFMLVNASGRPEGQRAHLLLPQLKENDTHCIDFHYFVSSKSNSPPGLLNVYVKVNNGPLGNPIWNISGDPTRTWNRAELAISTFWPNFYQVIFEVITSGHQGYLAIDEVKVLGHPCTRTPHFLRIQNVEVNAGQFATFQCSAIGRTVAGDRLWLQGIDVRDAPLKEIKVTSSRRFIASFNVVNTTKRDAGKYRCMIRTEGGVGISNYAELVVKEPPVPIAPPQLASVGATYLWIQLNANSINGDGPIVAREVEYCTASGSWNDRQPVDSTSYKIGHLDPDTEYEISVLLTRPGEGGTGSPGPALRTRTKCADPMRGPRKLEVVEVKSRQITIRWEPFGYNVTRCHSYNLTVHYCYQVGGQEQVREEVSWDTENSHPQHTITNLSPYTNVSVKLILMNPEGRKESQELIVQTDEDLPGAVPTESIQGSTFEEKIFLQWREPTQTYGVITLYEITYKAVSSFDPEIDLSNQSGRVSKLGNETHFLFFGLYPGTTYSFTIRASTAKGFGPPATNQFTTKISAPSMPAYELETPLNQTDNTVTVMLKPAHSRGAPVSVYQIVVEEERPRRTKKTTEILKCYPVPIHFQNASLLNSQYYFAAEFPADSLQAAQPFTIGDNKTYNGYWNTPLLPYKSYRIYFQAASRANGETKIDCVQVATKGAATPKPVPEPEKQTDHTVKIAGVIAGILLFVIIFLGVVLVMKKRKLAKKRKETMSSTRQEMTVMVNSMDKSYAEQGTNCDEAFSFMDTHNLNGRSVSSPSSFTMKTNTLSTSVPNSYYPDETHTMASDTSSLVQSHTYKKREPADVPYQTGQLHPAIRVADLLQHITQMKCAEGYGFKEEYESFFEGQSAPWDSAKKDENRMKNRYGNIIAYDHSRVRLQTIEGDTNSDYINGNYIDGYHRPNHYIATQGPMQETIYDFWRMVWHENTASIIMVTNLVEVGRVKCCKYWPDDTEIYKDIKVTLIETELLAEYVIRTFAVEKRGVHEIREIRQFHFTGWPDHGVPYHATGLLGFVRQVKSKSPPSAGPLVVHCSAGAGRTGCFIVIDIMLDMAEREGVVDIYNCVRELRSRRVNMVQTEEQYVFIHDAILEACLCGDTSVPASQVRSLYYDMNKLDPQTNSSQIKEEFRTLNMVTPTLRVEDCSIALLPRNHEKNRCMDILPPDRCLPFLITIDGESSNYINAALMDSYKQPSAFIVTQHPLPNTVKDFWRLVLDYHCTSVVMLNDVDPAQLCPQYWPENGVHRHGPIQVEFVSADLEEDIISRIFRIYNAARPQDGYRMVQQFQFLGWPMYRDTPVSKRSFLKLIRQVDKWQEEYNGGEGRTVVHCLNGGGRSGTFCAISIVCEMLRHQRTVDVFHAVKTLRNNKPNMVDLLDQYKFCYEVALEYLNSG
# SHP2 = target: T13, SHP2 (Homo sapiens, UniProt Q06124); assay: PhosphataseProfiler (Eurofins) selectivity panel; format: biochemical; details: SHP2, 25µM
# T13 construct: purchased Eurofins PP260
# TCPTP = target: T14, TCPTP (Homo sapiens, UniProt P17706); assay: PhosphataseProfiler (Eurofins) selectivity panel; format: biochemical; details: 25µM
# T14 construct: purchased Eurofins PP260
# [3] = listed as Candesartan Cilexetil
structure (smiles),measurement,setting,value
CCOc1nc2cccc(C(=O)O)c2n1Cc1ccc(-c2ccccc2-c2nnn[nH]2)cc1 [Candesartan],% Phosphatase Activity (compared to DMSO) PRL-1,recombinant PRL-1,106%
same,% Phosphatase Activity (compared to DMSO) PRL-1,recombinant PRL-1; [3],6.33%
same,IC50,recombinant PRL-1; […] protein,69 ± 8 µM
same,% Phosphatase Activity (compared to DMSO) PRL-3,recombinant PRL-3,82%
same,% Phosphatase Activity (compared to DMSO) PRL-3,recombinant PRL-3; [3],-3.55%
same,IC50,recombinant PRL-3; […] protein,28 ± 4 µM
same,mode of inhibition (Lineweaver-Burke analysis),recombinant PRL-3,non-competitive inhibitors
same,cellular migration in control cells,HEK293T cells,no corresponding reduction in migration
same,cellular migration in PRL-3 overexpressing cells,HEK293T cells,significant inhibition of cellular migration
same,migration of HCT116 cells with PRL-3 knock-down (PRL-3 shRNA),HCT116 cells [1],no additional impact on migration
same,inhibition of migration of HCT116 cells,HCT116 cells [1]; vs DMSO,> 30%
same,inhibition of migration of SW480 cells,SW480 cells,> 30%
same,cell cycle (EdU staining),HCT116 cells [2],did not significantly impact
same,Percent Phosphatase Activity (compared to DMSO),ACP1 (LMPTP-A),97%
same,Percent Phosphatase Activity (compared to DMSO),ACP1 (LMPTP-B),113%
same,Percent Phosphatase Activity (compared to DMSO),MKP5,99%
same,Percent Phosphatase Activity (compared to DMSO),PP1alpha,105%
same,Percent Phosphatase Activity (compared to DMSO),PTPbeta,85%
same,Percent Phosphatase Activity (compared to DMSO),CD45,100%
same,Percent Phosphatase Activity (compared to DMSO),Lambda PP,107%
same,Percent Phosphatase Activity (compared to DMSO),PP2A,110%
same,Percent Phosphatase Activity (compared to DMSO),PTPMEG,109%
same,Percent Phosphatase Activity (compared to DMSO),PTPMEG2,97%
same,Percent Phosphatase Activity (compared to DMSO),PTPRM,107%
same,Percent Phosphatase Activity (compared to DMSO),SHP2,104%
same,Percent Phosphatase Activity (compared to DMSO),TCPTP,128%
CC(C)=CCC/C(C)=C/CC/C(C)=C/CSc1ccccc1C(=O)O [Salirasib],IC50,recombinant PRL-1; 2.5 µM protein,53 ± 5 µM
same,% Phosphatase Activity (compared to DMSO) PRL-1,recombinant PRL-1,26%
same,IC50,recombinant PRL-3; 2.5 µM protein,27 ± 3 µM
same,mode of inhibition (Lineweaver-Burke analysis),recombinant PRL-3,non-competitive inhibitors
same,cellular migration in control cells,HEK293T cells,no corresponding reduction in migration
same,cellular migration in PRL-3 overexpressing cells,HEK293T cells,significant inhibition of cellular migration
same,migration of HCT116 cells with PRL-3 knock-down (PRL-3 shRNA),HCT116 cells [1],significantly reduced migration
same,inhibition at 100 µM,"HCT116 cells [1]; Homo sapiens, HCT-116, vs DMSO",> 30%
same,inhibition at 100 µM,"SW480 cells; Homo sapiens, SW480",> 30%
same,cell cycle (EdU staining),HCT116 cells [2],did not significantly impact
same,Percent Phosphatase Activity (compared to DMSO),ACP1 (LMPTP-A),96%
same,Percent Phosphatase Activity (compared to DMSO),ACP1 (LMPTP-B),106%
same,Percent Phosphatase Activity (compared to DMSO),MKP5,106%
same,Percent Phosphatase Activity (compared to DMSO),PP1alpha,104%
same,Percent Phosphatase Activity (compared to DMSO),PTPbeta,91%
same,Percent Phosphatase Activity (compared to DMSO),CD45,102%
same,Percent Phosphatase Activity (compared to DMSO),Lambda PP,112%
same,Percent Phosphatase Activity (compared to DMSO),PP2A,107%
same,Percent Phosphatase Activity (compared to DMSO),PTPMEG,107%
same,Percent Phosphatase Activity (compared to DMSO),PTPMEG2,102%
same,Percent Phosphatase Activity (compared to DMSO),PTPRM,111%
same,Percent Phosphatase Activity (compared to DMSO),SHP2,103%
same,Percent Phosphatase Activity (compared to DMSO),TCPTP,118%
